Assay results from patent US11844823B2, “Beta-hairpin peptidomimetic with elastase inhibitory activity and aerosol dosage forms thereof” (POLYPHOR AG, priority 2016, dated 2023).
Non-standard residues stand in square brackets, D forms with d. Residues, ends and D or L forms follow the SMILES beside them. Gly(octyl) = CCCCCCCC[C@H](N)C(=O)O

Columns and labels:
cynomolgus monkeys = test: GLP-compliant 28-day inhalation toxicity study in monkeys; assay type: in vivo, cynomolgus monkey
Procedure: In a GLP-compliant 28-day inhalation toxicity study in cynomolgus monkeys, conducted by Charles River Laboratories Preclinical Services, Tranent, Edinburgh, UK, the formulation described in Example 2 and dilutions thereof as well as the vehicle were administered using the Pari eFlow® XL 30 nebulizer device (Pari Pharma, Starnberg, Germany) with an oro-nasal inhalation mask for 60 min per day for 28 days, followed by a 2-week recovery period. […] In total five males and five females were used for each dose of the toxicity study including recovery. Parameters assessed included clinical signs, body weights, electrocardiology, ophthalmic examination, clinical pathology, toxicokinetic parameters in the plasma, gross necropsy findings, organ weights and histopathologic examinations.

healthy subjects = test: First-in-man study in healthy subjects, safety and tolerability of orally inhaled single doses; assay type: in vivo, human
From the text: In this randomised, double-blind, placebo-controlled, parallel-group (per dose level) dose-escalation study of inhaled single doses in 48 healthy subjects in six dose groups of eight subjects each, conducted by Inamed GmbH, Gauting, Germany, the controlled oral inhalation of the formulation described in Example 1 and dilutions thereof as well as the placebo (0.5% [w/w] aqueous sodium chloride solution adjusted to pH 5.5 with 1 M HCl pharmaceutical grade) occurred via the Pari eFlow® XL 30 nebulizer device (Pari Pharma GmbH, Starnberg, Germany). The dose levels and corresponding concentrations of cyclo(-OctG-Glu-Thr-Ala-Ser-Ile-Pro-Pro-Gln-Lys-Tyr-^DPro-Pro-) (active compound) are summarized in Table 10.
The volume of placebo nebulizer solution corresponded to that of the active compound at a particular dose level. The duration of inhalation depended on the total volume of nebulizer solution and ranged between several minutes and roughly one hour. Adverse events were tabulated and summarized according to the current version of Medical Dictionary for Regulatory Activities.

neutrophil elastase = test: Previous intratracheal study in the LPS/fMLP rat model; assay type: in vivo; conditions: intratracheal doses of 0.03 to 3 mg/kg
From the text: The doses of fMLP and the time points were chosen based upon published data (see e.g. S. Yasui, A. Nagai, K. Aoshiba et al., Eur. Respir. J., 1995, 8, 1293; T. Yang, J. Zhang, K. Sun et al., Inflamm. Res. 2012, 61, 563; R. Corteling, D. Wyss, A. Trifilieff, BMC Pharmacology, 2002, 2, 1) and experience at Envigo CRS Limited. The dose selection of the drug was based on a previous intratracheal study at Envigo CRS Limited.

[1] = molecular target: T1, human neutrophil elastase (Homo sapiens, UniProt P08246); test: Phase-1b study, active neutrophil elastase in sputum by FRET elastase assay; assay type: in vivo; conditions: CF patients; response appeared independent of dose; returned to baseline at 24 h
T1 construct: from tissue; host or cells: spontaneous sputum of patients with cystic fibrosis (PBS-soluble fraction)
T1 sequence (P08246 30-247 limits assumed): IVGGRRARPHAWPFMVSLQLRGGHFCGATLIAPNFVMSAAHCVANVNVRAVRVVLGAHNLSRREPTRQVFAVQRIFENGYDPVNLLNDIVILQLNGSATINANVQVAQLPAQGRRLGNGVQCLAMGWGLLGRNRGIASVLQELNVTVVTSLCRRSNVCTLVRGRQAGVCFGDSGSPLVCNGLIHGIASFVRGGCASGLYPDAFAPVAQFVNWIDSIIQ
Procedure: The pharmacodynamic effect of ascending single doses of active compound was investigated by evaluation of neutrophil elastase (NE) activity in sputum using FRET (fluorescence resonance energy transfer) assay after PBS aliquotation and freezing.
On the day of screening, if possible, for baseline assessment of NE activity, on Day −1 as soon as possible after the subject's arrival at the study site for baseline assessment of NE activity, on Day 1 in the period of time between 1 h and 3 h after start of inhalation, and in the morning of Day 2, at approx. 24 h after start of inhalation.
For evaluation of NE activity in sputum, at first, the weight of the sputum sample was determined and 8 mL cold phosphate-buffered saline (PBS) per gram purified sputum was added. […]
The NE activity in sputum was evaluated by using a FRET elastase assay adapted from an assay described in Nature Protocols, 2008, 3, 991 (B. Korkmaz, S. Attucci, M. A. Juliano et al.) and validated by MLM Medical Labs GmbH, Mönchengladbach, Germany.
The assay is based on the reaction of human neutrophil elastase with the substrate 2Abz-Ala-Pro-Glu-Glu-Ile-Met-Arg-Arg-Gln-Tyr(3NO2)—OH (GeneCust Europe S.A., Ellange, Luxembourg, #P160301-SY452824). […] The product of the reaction is detected through fluorescence measurement and the initial reaction velocity is determined. […]

For `CCCCCCCC[C@@H]1NC(=O)[C@@H]2CCCN2C(=O)[C@H]2CCCN2C(=O)[C@H](Cc2ccc(O)cc2)NC(=O)[C@H](CCCCN)NC(=O)[C@H](CCC(N)=O)NC(=O)[C@@H]2CCCN2C(=O)[C@@H]2CCCN2C(=O)[C@H]([C@@H](C)CC)NC(=O)[C@H](CO)NC(=O)[C@H](C)NC(=O)[C@H]([C@@H](C)O)NC(=O)[C@H](CCC(=O)O)NC1=O` [cyclo(-OctG-Glu-Thr-Ala-Ser-Ile-Pro-Pro-Gln-Lys-Tyr-^DPro-Pro-)] (cyclo([Gly(octyl)]ETASIPPQKY[dP]P)), the histopathologic findings (cynomolgus monkeys; cynomolgus monkey, in vivo) was “increased numbers of alveolar macrophages, perivascular/peribronchiolar infiltrates, and granular eosinophilic deposits in the lung and lymphoid hyperplasia in the tracheobronchial lymph nodes”, the “body weight, clinical signs, ophthalmic, electrocardiographic findings, urinary parameters” value (cynomolgus monkeys; monkey, 11.2, 30.1 and 112 mg/kg/day) was “no body weight changes, clinical signs, ophthalmic or electrocardiographic findings or changes in urinary parameters attributable to drug treatment” and the “death, serious and other significant adverse events” value (healthy subjects; healthy subjects, single inhaled doses 20-960 mg) was “No death, no serious adverse events (AE) and no other significant AE”. The “subjects judging overall tolerability 'very good' or 'good'” value (healthy subjects; human, in vivo) was 97.9%, the “total number of AEs” value (healthy subjects; human, in vivo) was 27 and the “treatment-emergent adverse events (TEAEs)” value (healthy subjects; human, in vivo) was 24. For the same molecule, the “efficacy in LPS/fMLP animal model” value (neutrophil elastase) was “efficacious” and the “mean concentration of active NE in sputum after single-dose inhalation” value [1] was “strongly decreased”.
